Results published in publication PMC9079959, “Substituted spirooxindole derivatives as potent anticancer agents through inhibition of phosphodiesterase 1” (RSC Advances, 2018).
Like-named read-outs stand apart in the source and are kept apart here.

Key:
Vero-B cells = assay: MTT cytotoxicity assay, normal cells Vero-B; type: cell-based, African green monkey; conditions: Chlorocebus sabaeus, Vero B, 48 h
Method: (§1) The cytotoxic activity of the compounds was tested against different mammalian cancer cells, prostate carcinoma cells (PC-3), hepatocellular carcinoma (HepG2) and colon cancer cells (HCT-116). African green monkey kidney cells (Vero-B) were used as normal cells to study the selectivity towards the cancer cells. The cell lines were obtained from the American Type Culture Collection (ATCC). The cells were cultivated at 37 °C and 10% CO2 in DMEM (Lonza, Germany) medium supplemented with 10% fetal bovine serum (Lonza, Germany), 100 IU ml^−1 penicillin and 100 μg ml^−1 streptomycin (Lonza, Germany). […] The spirooxindole derivatives were solubilized in DMSO and stored at −20 °C. The viability of the cells was quantified using 3-(4,5-dimethylthiazol-2-yl)-2,5-diphenyl tetrazolium bromide (MTT), which measures the activity of mitochondrial succinate dehydrogenase in viable cells.[45,46]
(§2) The cells were seeded in 96-well plates at a concentration of 5 × 10^4 cells per ml (100 μl per well). […] DMSO was used as a negative control (0.1%). The cells were incubated for 48 h. After that, 15 μl of MTT (5 mg ml^−1 in PBS) was added to each well and incubated for another 4 h. The formazan crystals were solubilized by 100 μl of acidified SDS solution (10% SDS/0.01 N HCl in PBS). The absorbance was measured after 14 h of incubation at 37 °C and under 5% CO2 at 570 nm by using a BioTek microplate reader. Each experiment was repeated 3 times and a standard deviation was calculated (SD±). […] The growth of the cells was monitored and the images were acquired by Gx microscopes (GXMGXD202 Inverted Microscope) at 10× magnification.

HepG2 cells = assay: MTT cytotoxicity assay, hepatocellular carcinoma HepG2; type: cell-based; conditions: for IC50: Homo sapiens, HepG2, MTT, 48 h; for SI (selectivity index): IC50 normal (VERO-B) / IC50 cancer (HepG2)
Method: as §1, §2

HCT-116 cells = assay: MTT cytotoxicity assay, colorectal cancer cell line HCT-116; type: cell-based; conditions: for IC50: Homo sapiens, HCT-116, MTT, 48 h; for SI (selectivity index): IC50 normal (VERO-B) / IC50 cancer (HCT-116)
Method: as §1, §2

PC-3 cells = assay: MTT cytotoxicity assay, prostate cancer cell line PC-3; type: cell-based; conditions: for IC50: Homo sapiens, PC-3, MTT, 48 h; for SI (selectivity index): IC50 normal (VERO-B) / IC50 cancer (PC-3)
Method: as §1, §2

phosphodiesterase 1 = type: biochemical, snake; conditions: positive control
Method: A phosphodiesterase I inhibition assay was performed using snake venom according to a previously reported method with minute variations. Briefly, 33 mM Tris–HCl buffer of pH 8.8 (97 μl), 30 mM magnesium acetate with an enzyme concentration of 0.000742 U well^−1 and 0.33 mM bis-(p-nitrophenyl) phosphate (Sigma N-3002, 60 μl) as substrate were taken. […] After a pre-incubation period of 30 min, the enzyme with the test samples was observed spectrophotometrically for enzyme activity on a microtiter plate reader at 37 °C by following the rate of change in OD min^−1 at 410 nm of the p-nitrophenol released from p-nitrophenyl phosphate. All assays were processed in triplicate.[47]

[1] = ± SD of 3 experiments, read-out: HepG2 (IC50)
[2] = read-out: HepG2 (IC50, μg ml^−1)
[3] = ± SD of 3 experiments, read-out: HCT-116 (IC50)
[4] = read-out: HCT-116 (IC50, μg ml^−1)
[5] = ± SD of 3 experiments, read-out: PC-3 (IC50)
[6] = read-out: PC-3 (IC50, μg ml^−1)

SMILES	IC50 (Vero-B cells)	IC50 (HepG2 cells; [1])	IC50 (HepG2 cells; [2])	SI (selectivity index) (HepG2 cells)	IC50 (HCT-116 cells; [3])	IC50 (HCT-116 cells; [4])	SI (selectivity index) (HCT-116 cells)	melting point	IC50 (PC-3 cells; [5])	IC50 (PC-3 cells; [6])	SI (selectivity index) (PC-3 cells)	IC50 (phosphodiesterase 1)
O=C(c1c[nH]c2ccccc12)[C@@H]1C(c2cccc(F)c2)[C@@H]2CCCN2[C@@]12C(=O)Nc1ccccc12 (stereo partly drawn) [4h, (2′R,3S,7a′S)-1′-(3-Fluorophenyl)-2′-(1H-indole-3-carbonyl)-1′,2′,5′,6′,7′,7a′-hexahydrospiro[indoline-3,3′-pyrrolizin]-2-one]	18 µM	14 ± 0.22 µM	6.5 µg/mL	1.3	15 ± 1.4 µM	7 µg/mL	1.2	149 to 151 °C	11.5 ± 11.5 µM	5.4 µg/mL	1.6	–
O=C(c1c[nH]c2ccccc12)[C@@H]1C(c2ccco2)[C@@H]2CCCN2[C@@]12C(=O)Nc1ccccc12 (stereo partly drawn) [4m, (2′R,3S,7a′S)-1′-(Furan-2-yl)-2′-(1H-indole-3-carbonyl)-1′,2′,5′,6′,7′,7a′-hexahydrospiro[indoline-3,3′-pyrrolizin]-2-one]	50 µM	40 ± 5 µM	17.5 µg/mL	1.3	29 ± 2 µM	12.7 µg/mL	1.7	172 to 174 °C	26 ± 1.7 µM	11.3 µg/mL	1.9	–
O=C(c1c[nH]c2ccccc12)[C@@H]1C(c2cccs2)[C@@H]2CCCN2[C@@]12C(=O)Nc1ccccc12 (stereo partly drawn) [4l, (2′R,3S,7a′S)-2′-(1H-Indole-3-carbonyl)-1′-(thiophen-2-yl)-1′,2′,5′,6′,7′,7a′-hexahydrospiro[indoline-3,3′-pyrrolizin]-2-one]	60 µM	50 ± 3 µM	22.7 µg/mL	1.2	50 ± 3.5 µM	22.7 µg/mL	1.2	157 to 159 °C	29 ± 3 µM	13 µg/mL	2.1	–
O=C(c1c[nH]c2ccccc12)[C@@H]1C(c2cccc(Br)c2)[C@@H]2CCCN2[C@@]12C(=O)Nc1ccccc12 (stereo partly drawn) [4j, (2′R,3S,7a′S)-1′-(3-Bromophenyl)-2′-(1H-indole-3-carbonyl)-1′,2′,5′,6′,7′,7a′-hexahydrospiro[indoline-3,3′-pyrrolizin]-2-one]	20 µM	8 ± 1 µM	4.2 µg/mL	2.5	9 ± 0.5 µM	4.7 µg/mL	2.2	110 to 112 °C	7 ± 0.2 µM	3.7 µg/mL	–	–
Cc1cccc(C2[C@@H](C(=O)c3c[nH]c4ccccc34)[C@]3(C(=O)Nc4ccccc43)N3CCC[C@@H]23)c1 (stereo partly drawn) [4i, (2′R,3S,7a′S)-2′-(1H-Indole-3-carbonyl)-1′-(m-tolyl)-1′,2′,5′,6′,7′,7a′-hexahydrospiro[indoline-3,3′-pyrrolizin]-2-one]	15 µM	7 ± 0.4 µM	3.2 µg/mL	2.1	7 ± 0.2 µM	3.2 µg/mL	2.1	141 to 143 °C	7 ± 0.6 µM	3.2 µg/mL	–	–
COc1cc(C2[C@@H](C(=O)c3c[nH]c4ccccc34)[C@]3(C(=O)Nc4ccccc43)N3CCC[C@@H]23)cc(OC)c1OC (stereo partly drawn) [4n, (2′R,3S,7a′S)-2′-(1H-Indole-3-carbonyl)-1′-(3,4,5-trimethoxyphenyl)-1′,2′,5′,6′,7′,7a′-hexahydrospiro[indoline-3,3′-pyrrolizin]-2-one]	40 µM	28 ± 2 µM	15.7 µg/mL	1.4	20 ± 1.25 µM	11.1 µg/mL	2	179 to 181 °C	17 ± 2 µM	9.4 µg/mL	2.4	–
O=C(O)CN(CCN(CC(=O)O)CC(=O)O)CC(=O)O [EDTA, reference compound]	–	–	–	–	–	–	–	–	–	–	–	274 ± 0.007 µM
